Measurements: ChEMBL document CHEMBL1201862, “PubChem BioAssay data set” (2004)
Calls of active or inactive are those of the source.

Legend:
Cytochrome P450 1A2 = biological target: T1, Cytochrome P450 1A2 (Homo sapiens, UniProt P05177);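 further: PubChem cytochrome P450 panel assay, CYP1A2 panel member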
T1 sequence (P05177 whole entry): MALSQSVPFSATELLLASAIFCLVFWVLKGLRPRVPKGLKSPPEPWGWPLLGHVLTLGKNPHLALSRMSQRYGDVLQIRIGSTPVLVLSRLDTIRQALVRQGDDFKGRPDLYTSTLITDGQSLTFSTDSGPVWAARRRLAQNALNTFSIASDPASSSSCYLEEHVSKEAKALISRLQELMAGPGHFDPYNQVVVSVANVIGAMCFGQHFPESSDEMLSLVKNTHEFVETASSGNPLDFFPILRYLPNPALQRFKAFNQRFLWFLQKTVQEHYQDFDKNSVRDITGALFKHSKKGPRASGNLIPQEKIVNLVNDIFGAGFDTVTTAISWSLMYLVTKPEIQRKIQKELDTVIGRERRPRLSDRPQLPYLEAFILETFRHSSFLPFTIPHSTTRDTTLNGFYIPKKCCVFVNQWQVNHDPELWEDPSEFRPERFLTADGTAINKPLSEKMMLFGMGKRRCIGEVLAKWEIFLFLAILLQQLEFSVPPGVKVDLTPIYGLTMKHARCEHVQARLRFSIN

Cytochrome P450 2C19 = Cytochrome P450 2C19 (Homo sapiens, UniProt P33261); assay: Cytochrome panel assay with activity outcomes. Panel member name: p450-cyp2c19 Compounds with AC50 equal or less than 10 uM are considered active; type: functional
Cytochrome P450 2C19, sequence (P33261 whole entry): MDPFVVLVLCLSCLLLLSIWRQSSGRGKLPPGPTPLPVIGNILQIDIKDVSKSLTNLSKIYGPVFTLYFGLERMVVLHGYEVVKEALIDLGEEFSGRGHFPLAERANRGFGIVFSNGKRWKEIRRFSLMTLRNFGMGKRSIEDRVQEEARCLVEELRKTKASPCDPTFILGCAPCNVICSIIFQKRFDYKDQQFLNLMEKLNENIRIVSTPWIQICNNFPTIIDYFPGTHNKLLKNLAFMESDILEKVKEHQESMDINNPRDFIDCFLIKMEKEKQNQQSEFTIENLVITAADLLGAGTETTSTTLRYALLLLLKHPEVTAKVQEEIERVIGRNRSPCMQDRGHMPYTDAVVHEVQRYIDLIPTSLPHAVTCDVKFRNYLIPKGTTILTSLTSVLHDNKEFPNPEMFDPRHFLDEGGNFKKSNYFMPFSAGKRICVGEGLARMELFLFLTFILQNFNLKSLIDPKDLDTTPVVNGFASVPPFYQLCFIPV

H9c2 = assay: cells; type: functional, cell-based; conditions: Rattus norvegicus, H9c2, Myocardium;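 further: confirmatory concentration-response retest of ultra-high-throughput screening hits for modulation of myocardial damage; cell death induced by hydrogen peroxide oxidative stress; compound pretreatment for 60 min then peroxide exposure for 2 h; potency is for protecting the cells against peroxide damage rather than for killing them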
[1] = NIH3T3 cell viability loss – ATP luminescence, mouse fibroblasts, counter-screen, dose response (AID 2010); type: functional, cell-based;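 further: cells exposed to compound for about 90 hours before reading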
[2] = Trypanosoma cruzi growth suppression in host cells – NIH3T3 host cells, beta-gal luminescence, confirmation (AID 2044); type: functional, cell-based;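 further: intracellular parasites grown in NIH/3T3 mouse fibroblasts as host cells; luminescent beta-galactosidase reporter signal from transgenic T. cruzi replicating inside host cells; inhibitors lower the luminescence signal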
Cytochrome P450 2C9 = Cytochrome P450 2C9 (Homo sapiens, UniProt P11712)
Cytochrome P450 2C9, sequence (P11712 whole entry): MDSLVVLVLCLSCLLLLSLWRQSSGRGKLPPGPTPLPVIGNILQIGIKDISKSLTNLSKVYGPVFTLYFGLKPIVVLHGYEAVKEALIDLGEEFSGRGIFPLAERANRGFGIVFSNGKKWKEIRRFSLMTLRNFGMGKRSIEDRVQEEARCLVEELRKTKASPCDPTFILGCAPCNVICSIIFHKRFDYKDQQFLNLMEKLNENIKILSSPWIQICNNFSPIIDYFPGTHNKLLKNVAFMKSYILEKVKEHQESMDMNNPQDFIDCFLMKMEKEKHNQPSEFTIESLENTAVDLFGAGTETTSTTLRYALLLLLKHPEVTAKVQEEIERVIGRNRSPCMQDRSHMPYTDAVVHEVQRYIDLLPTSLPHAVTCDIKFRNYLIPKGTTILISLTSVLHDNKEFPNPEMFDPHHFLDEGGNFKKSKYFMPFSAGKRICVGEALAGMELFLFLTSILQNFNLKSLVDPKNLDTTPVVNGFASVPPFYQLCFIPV

[3] = biological target: T2, Corticotropin-releasing factor receptor 2/Corticotropin-releasing factor-binding protein (Homo sapiens, UniProt P24387+Q13324); assay: activators of CRF receptor 2 with binding protein – uHTS hits, confirmation (AID 602473); type: functional; conditions: read-out: EC50_Mean
T2 sequence (Q13324 whole entry): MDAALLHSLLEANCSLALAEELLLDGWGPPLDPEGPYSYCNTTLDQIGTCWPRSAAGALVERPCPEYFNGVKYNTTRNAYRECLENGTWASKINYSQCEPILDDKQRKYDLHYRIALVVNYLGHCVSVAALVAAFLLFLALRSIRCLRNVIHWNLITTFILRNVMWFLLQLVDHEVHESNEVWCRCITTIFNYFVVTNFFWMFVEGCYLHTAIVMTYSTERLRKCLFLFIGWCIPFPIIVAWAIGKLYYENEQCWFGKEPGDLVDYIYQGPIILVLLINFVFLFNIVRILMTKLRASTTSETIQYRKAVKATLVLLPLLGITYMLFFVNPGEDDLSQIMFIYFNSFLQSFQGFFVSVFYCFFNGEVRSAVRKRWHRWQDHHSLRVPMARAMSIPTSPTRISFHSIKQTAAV
T2 sequence (P24387 whole entry): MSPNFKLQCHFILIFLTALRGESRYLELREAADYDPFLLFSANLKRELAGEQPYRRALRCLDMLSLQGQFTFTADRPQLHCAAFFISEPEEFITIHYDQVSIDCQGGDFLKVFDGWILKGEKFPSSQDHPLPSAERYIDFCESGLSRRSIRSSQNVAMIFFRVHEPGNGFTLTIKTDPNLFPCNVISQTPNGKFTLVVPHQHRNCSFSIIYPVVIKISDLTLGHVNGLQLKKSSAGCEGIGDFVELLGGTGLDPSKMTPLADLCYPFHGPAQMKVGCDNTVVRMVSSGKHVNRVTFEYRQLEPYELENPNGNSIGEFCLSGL

NC(=O)CNC(=O)[C@@H]1CC2(CC(c3ccccc3)=NO2)CN1C(=O)c1ccc(Br)cc1 (stereo not given in full)
AC50 (Cytochrome P450 1A2): 25.1 µM (inconclusive)
AC50 (Cytochrome P450 2C19; read-out: AC50): 39.8 µM (inconclusive)

Cc1ccc(C(C(=O)NCc2ccccc2)N(Cc2cccs2)C(=O)c2ccc3c(c2)OCCO3)cc1 (stereo not given)
IC50 (H9c2): > 79 µM (inactive)

Cc1s/c(=N\C(=O)c2ccco2)n(C)c1-c1ccc(F)cc1
AC50 (Cytochrome P450 2C19; read-out: AC50): 3.55 µM (inconclusive)

CSc1ccc2c(c1)N(CC[C@H]1CCCCN1C)c1ccccc1S2
AC50 (Cytochrome P450 2C19; read-out: AC50): 20 µM (inconclusive)

CCCCNC(=O)c1cc2c(=O)n3cccc(C)c3nc2n(Cc2ccccc2)c1=N
EC50 [1]: > 60 µM (not active)
EC50 [2]: 3.03 µM (active)

CS(=O)(=O)N1CCC[C@@]2(CCN(C(c3ccccc3)c3ccccc3)C2)C1
AC50 (Cytochrome P450 1A2): 25.1 µM (inconclusive)
AC50 (Cytochrome P450 2C19; read-out: AC50): 3.16 µM (inconclusive)

CCCCn1c(SC(C)C(N)=O)nc2cc(C(=O)OC)ccc2c1=O (stereo not given)
AC50 (Cytochrome P450 2C9): 8.91 µM (inconclusive)
AC50 (Cytochrome P450 2C19; read-out: AC50): 3.55 µM (inconclusive)

O=[N+]([O-])c1ccc(C[S+]([O-])Cc2ccccc2)cc1 (stereo not given)
AC50 (Cytochrome P450 1A2): 3.16 µM (inconclusive)

CCN(CC)S(=O)(=O)c1cccc(C(=O)N/N=C/c2ccccn2)c1
IC50 (H9c2): > 79 µM (inactive)

COc1ccc(-c2nc3cnc(N4CCN(C)CC4)nc3n(C3CC3)c2=O)cc1
AC50 (Cytochrome P450 1A2): 20 µM (inconclusive)

CCCCc1nc(O)c2c3c(sc2n1)CCC3
IC50 (H9c2): > 79 µM (inactive)

Cc1sc2nc(SCC(=O)N3CCOCC3)nc(O)c2c1C
IC50 (H9c2): > 79 µM (inactive)

O=C(CNC(=S)N(Cc1ccccc1)Cc1cccnc1)NC1CCCCC1
EC50 [1]: 11.1 µM (active)
EC50 [2]: 0.516 µM (active)

Cc1ccc(OC(F)F)c(NC(=O)Nc2cccc(C(F)(F)F)c2)c1
EC50 [1]: > 60 µM (not active)
EC50 [2]: 2.41 µM (active)

COc1ccc(C2CC(C(F)(F)F)n3nc(C(=O)N(C)Cc4cn(C)nc4C)c(Cl)c3N2)cc1 (stereo not given)
AC50 (Cytochrome P450 2C9): 17.8 µM (inconclusive)
AC50 (Cytochrome P450 2C19; read-out: AC50): 17.8 µM (inconclusive)

CC(=O)N(C)c1nnc(-c2cnccn2)s1
AC50 (Cytochrome P450 2C19): inconclusive

COc1ccc(-c2nc3cnc(Oc4ccccc4)nc3n(Cc3cccs3)c2=O)cc1
AC50 (Cytochrome P450 2C9): 1.26 µM (inconclusive)

COc1ccc(-c2csc(NC(=O)c3ccc(OCC(=O)N4CCOCC4)c(OC)c3)n2)cc1OC
IC50 (H9c2): > 79 µM (inactive)

COc1ccc(S(=O)(=O)N(CC(=O)NCC2CCCO2)c2ccc(F)cc2)cc1OC (stereo not given)
AC50 (Cytochrome P450 2C9): 10 µM (inconclusive)
AC50 (Cytochrome P450 2C19; read-out: AC50): 10 µM (inconclusive)

COc1ccc(-c2cc(C(=O)NC(C)c3ccccn3)c3ccccc3n2)cc1OC (stereo not given)
IC50 (H9c2): > 79 µM (inactive)

CCCS(=O)(=O)N1CCN(CC2CC=CCC2)CC1 (stereo not given)
AC50 (Cytochrome P450 1A2): 12.6 µM (inconclusive)

c1csc(CNc2ccnc(-c3ccoc3)n2)c1
AC50 (Cytochrome P450 2C19; read-out: AC50): 31.6 µM (inconclusive)

COc1cc(-c2cc(NC(C)=O)c3ncc(-c4ccc(F)cc4)n3c2)cc(OC)c1OC
IC50 (H9c2): > 79 µM (inactive)

N#Cc1ccc(-c2ccc(OCC(O)CN3CCCCC3)cc2)cc1 (stereo not given)
EC50 [1]: 12.1 µM (active)
EC50 [2]: 1.98 µM (active)

O=c1[nH]c2c(S)nc(O)nc2n1-c1ccccc1
AC50 (Cytochrome P450 2C19): inconclusive

N#CCCn1cc(/C=N/O)c(-c2ccc(Cl)cc2)n1
AC50 (Cytochrome P450 2C9): 15.8 µM (inconclusive)

C=CCN1C(=O)c2cccc3c(N4CCCCC4)ccc(c23)C1=O
EC50 [3]: 5.47 µM (active)

CCOC(=O)C1CCCN(C(=O)CCCOc2cc(=O)n(C)c3ccccc23)C1 (stereo not given)
AC50 (Cytochrome P450 1A2): 25.1 µM (inconclusive)

COc1cc(C(=O)Nc2nc(OC)c(-c3ccccc3)c(OC)n2)cc(OC)c1OC
IC50 (H9c2): > 79 µM (inactive)

COc1ccc(NC(=O)CN(C)C(=O)Cc2nnc(O)c3ccccc23)cc1
IC50 (H9c2): 19.6 µM (active)

CCN(CC)CCNc1nc(-c2ccccc2)c2c(c1C#N)CC(C)(C)OC2
EC50 [1]: > 60 µM (not active)
EC50 [2]: 0.332 µM (active)

COc1ccc(NC(=O)c2cc(-c3cccnc3)nc3c(C)c(C)ccc23)c(OC)c1
EC50 [1]: > 60 µM (not active)
EC50 [2]: 2.69 µM (active)

Cc1ncc(CO)c2c1Oc1nc(-c3ccccc3)nc(SCC(=O)N3CCCCC3)c1C2
IC50 (H9c2): > 79 µM (inactive)

COc1ccc(OC)c(/C=N/Nc2nncn2/N=C/c2cc(OC)ccc2OC)c1
IC50 (H9c2): > 79 µM (inactive)

CC(C)N(CCn1c(=S)[nH]c2ccccc2c1=O)C(C)C
EC50 [3]: 9.1 µM (active)

O=C(CSc1nnc(COc2ccc(F)cc2)o1)N1c2ccccc2CCc2ccccc21
EC50 [1]: > 60 µM (not active)
EC50 [2]: 1 µM (active)

O=C(O)CCSCc1ccccc1
AC50 (Cytochrome P450 2C19): inconclusive

O=C(Nc1nc2c(s1)CCCC2)c1ccc(S(=O)(=O)N2CCCc3ccccc32)cc1
EC50 [1]: > 60 µM (inconclusive)
EC50 [2]: 2.07 µM (active)

CCCCCC(=O)NC(=S)NNC(=O)c1ccc([N+](=O)[O-])cc1
EC50 [3]: 5.19 µM (active)

COc1ccc(C(=O)NN/C=C/C(=O)c2ccc(Br)cc2)cc1
IC50 (H9c2): > 79 µM (inactive)

O=C(CN(C(=O)Cn1nnc(-c2cccs2)n1)c1cnc2ccccc2c1)NCC1CCCO1 (stereo not given)
IC50 (H9c2): 75.1 µM (inactive)

CC(C)(O)c1cn(-c2nonc2N)nn1
AC50 (Cytochrome P450 1A2): 39.8 µM (inconclusive)
AC50 (Cytochrome P450 2C19; read-out: AC50): 3.16 µM (inconclusive)

Cc1nc2ccccc2c(=O)n1-n1cnnc1
AC50 (Cytochrome P450 1A2): 3.16 µM (inconclusive)

COc1cccc(N2CCN(C(=O)Nc3ccc4c(c3)NC(=O)CO4)CC2)c1
AC50 (Cytochrome P450 2C9): 12.6 µM (inconclusive)

NC(=O)c1ccccc1OCC(=O)NC12CC3CC(CC(C3)C1)C2
IC50 (H9c2): 36.9 µM (inactive)

N#Cc1c(-c2ccc(F)cc2)cc(-c2ccccc2)nc1SCC(=O)NCC(=O)O
EC50 [3]: 5.47 µM (active)

O=C(COc1ccc(F)cc1)Nc1cc(S(=O)(=O)N2CCCCC2)ccc1N1CCCCC1
EC50 [1]: > 60 µM (not active)
EC50 [2]: 2.15 µM (active)

CC(C)(C)C(C(Oc1ccc(Cl)cc1)n1cncn1)n1nnnc1C(c1cccc(Cl)c1)N1CCCCC1 (stereo not given)
EC50 [1]: > 60 µM (not active)
EC50 [2]: 1.59 µM (active)

N#CCCn1c(=O)c(CCc2ccccc2)nc2cnc(Oc3ccccc3)nc21
AC50 (Cytochrome P450 1A2): 12.6 µM (inconclusive)

Cc1ccc(C(=O)N/C(=C\c2ccc(-c3ccc([N+](=O)[O-])cc3)o2)C(=O)NC2CCS(=O)(=O)C2)cc1 (stereo not given)
EC50 [3]: 8.22 µM (active)

N[C@@H](Cn1cc(I)c(=O)[nH]c1=O)C(=O)O
AC50 (Cytochrome P450 1A2): 39.8 µM (inconclusive)

CCOc1cccc(C2C(C(=O)c3ccc(C)o3)=C(O)C(=O)N2Cc2ccncc2)c1 (stereo not given)
AC50 (Cytochrome P450 1A2): 39.8 µM (inconclusive)
AC50 (Cytochrome P450 2C19; read-out: AC50): 39.8 µM (inconclusive)

CN(Cc1ccco1)c1cc(-c2cccnc2)ncn1
AC50 (Cytochrome P450 2C19; read-out: AC50): 20 µM (inconclusive)

NS(=O)(=O)c1cc2c(cc1C(F)(F)F)N[C@H](Cc1ccccc1)NS2(=O)=O
AC50 (Cytochrome P450 1A2): 15.8 µM (inconclusive)

O=C(c1ccc(-c2nnc(Nc3ccccc3)c3ccccc23)cc1)N1C[C@H]2C[C@H](C1)c1cccc(=O)n1C2
AC50 (Cytochrome P450 1A2): 14.1 µM (inconclusive)
AC50 (Cytochrome P450 2C9): 2 µM (inconclusive)

COc1cc(-c2cc(C(=O)Nc3cccc(C(C)=O)c3)c3ccccc3n2)cc(OC)c1OC
IC50 (H9c2): > 79 µM (inactive)

CN(C)C(=O)COC(=O)[C@H](Cc1ccccc1)NC(=O)c1ccco1
EC50 [3]: 19.4 µM (active)

O=C(Cc1nnc(O)c2ccccc12)NCc1ccccn1
IC50 (H9c2): 35.7 µM (inactive)

CC(=O)Nc1ccc(Sc2ncccc2C(=O)Nc2ccc(OC(F)(F)F)cc2)cn1
EC50 [3]: 2.96 µM (active)

CN(Cc1c[nH]c2ccccc12)C1CCCCC1
EC50 [1]: 23.9 µM (active)
EC50 [2]: 0.699 µM (active)

CC(C)=CCc1ccc(=O)c(O)cc1C(C)C
IC50 (H9c2): > 79 µM (inactive)

COc1ccc(NC(=O)CCCc2nc(O)c3ccccc3n2)cc1Cl
IC50 (H9c2): > 79 µM (inactive)

N=C(N)N/N=C/c1ccc(Br)cc1
EC50 [1]: 6.37 µM (active)
EC50 [2]: 0.141 µM (active)

OCCSCc1cc(Cl)cc(Cl)c1O
AC50 (Cytochrome P450 2C9): 3.98 µM (inconclusive)

CC(OC(=O)Cn1[nH]c(=O)c2ccccc2c1=O)C(=O)Nc1ccc(F)cc1 (stereo not given)
IC50 (H9c2): > 79 µM (inactive)
